Source: US10292962B2, “Pharmaceutical combination comprising metformin and dihydroquercetin and its use for the treatment of cancer” (RESEARCH INSTITUTE FOR NUTRITION AND AGING CO., LTD., priority 2013, dated 2019)

Experiments:
[1] = system: WI-38 cells; experiment: Metformin-induced lactate production in human lung fibroblast cell line WI-38 (Example 3); format: cell-based; conditions: dihydroquercetin 1 mmol/L added 1 hr before metformin 20 mmol/L, 6 hr, vs metformin single (FIG. 3)
Experimental: After the culture, the conditioned medium was sampled, and the concentration of lactate contained in the medium was measured and evaluated.
Medium containing the given concentration of dihydroquercetin was added to each well and the cells were cultured for 1 hr. […] Using the Lactate Assay Kit II (BioVision) catalog no. K627-100, lactate concentration was measured.

[2] = system: phospho-4E-BP1 (Thr37/Thr46) protein; experiment: Relative phospho-4E-BP1 protein amount (ELISA) in human liver cancer cell line HuH-7 (Example 4); format: cell-based; conditions: metformin 5 mmol/L, dihydroquercetin 0.2 mmol/L, single or combined, 6 hr, control 84.1
Experimental: (§1) On the following day after cell seeding, test substances were added and the cells were cultured for 6 hr before harvesting them. The amounts of relative phospho-4E-BP1 protein contained in the prepared whole cell lysates were measured and evaluated. Each group (N=3) was treated as follows: • (1) Control (vehicle control) group: 1% ethanol containing medium • (2) Metformin single-treated group: metformin 5 mmol/L • (3) Dihydroquercetin single-treated group: dihydroquercetin 0.2 mmol/L • (4) Combined-treated group: metformin 5 mmol/L+dihydroquercetin 0.2 mmol/L
The passage-cultured HuH-7 cells were dissociated with trypsin, and suspended in fresh medium. The cell density of the cell suspension was determined using a hematocytometer and adjusted to 2.5×10^5 cells/mL. The cells were seeded on 12-well multiwell culture plate at 1 mL per well, and cultured overnight under the conditions of 37° C., 5% CO2. […] Upon centrifugation, the supernatants were sampled, and the amounts of relative phospho-4E-BP1 (Thr37/Thr46) protein in the samples were quantified using ELISA kits in the same manner as in Example 1. The concentrations of the total protein in the whole cell lysates were measured using BCA protein assay, and the relative phospho-4E-BP1 protein amount of each well was normalized with the total protein amount. […]

[3] = system: phospho-4E-BP1 (Thr37/Thr46) protein; experiment: Relative phospho-4E-BP1 protein amount (ELISA) in human breast cancer cell line MDA-MB-231 (Example 5); format: cell-based; conditions: metformin 5 mmol/L, dihydroquercetin 0.2 mmol/L, single or combined, 6 hr, control 33.3
Experimental: as §1
The passage-cultured MDA-MB-231 cells were dissociated with trypsin, and suspended in fresh medium. The cell density of the cell suspension was determined using a hematocytometor and adjusted to 2.5×10^5 cells/mL. The cells were seeded on 12-well multiwell culture plate at 1 mL per well, and cultured overnight under the conditions of 37° C., 5% CO2. […] Upon centrifugation, the supernatants were sampled, and the amounts of relative phospho-4E-BP1 (Thr37/Thr46) protein in the samples were quantified using ELISA kits in the same manner as in Example 1. The concentrations of total protein in the whole cell lysates were measured using BOA protein assay, and the relative phospho-4E-BP1 protein amount of each well was normalized with the total protein amount. […]

[4] = system: phospho-4E-BP1 (Thr37/Thr46) protein; experiment: Relative phospho-4E-BP1 protein amount (ELISA) in human prostate cancer cell line 22Rv1 (Example 6); format: cell-based; conditions: metformin 10 mmol/L, dihydroquercetin 0.2 mmol/L, single or combined, 6 hr, control 51.0
Experimental: On the following day after cell seeding, test substances were added and the cells were cultured for 6 hr before harvesting them. The amounts of relative phospho-4E-BP1 protein contained in the prepared whole cell lysates were measured and evaluated. Each group (N=3) was treated as follows: • (1) Control (vehicle control) group: 1% ethanol containing medium • (2) Metformin single-treated group: metformin 10 mmol/L • (3) Dihydroquercetin single-treated group: dihydroquercetin 0.2 mmol/L • (4) Combined-treated group: metformin 10 mmol/L+dihydroquercetin 0.2 mmol/L
The passage-cultured 22Rv1 cells were dissociated with trypsin, and suspended in fresh medium. The cell density of the cell suspension was determined using a hematocytometer and adjusted to 2.5×10^5 cells/mL. The cells were seeded on 12-well multiwell culture plate at 1 mL per well, and cultured overnight under the conditions of 37° C., 5% CO2. […] Upon centrifugation, the supernatants were sampled, and the amounts of relative phospho-4E-BP1 (Thr37/Thr46) protein in the samples were quantified using ELISA kits in the same manner as in Example 1. The concentrations of total protein in the whole cell lysates were measured using BCA protein assay, and the relative phospho-4E-BP1 protein amount of each well was normalized with the total protein amount. […]

[5] = system: phospho-4E-BP1 (Thr37/Thr46) protein; experiment: Relative phospho-4E-BP1 protein amount (ELISA) in human bile duct cancer cell line HuH-28 (Example 7); format: cell-based; conditions: metformin 20 mmol/L, dihydroquercetin 0.2 mmol/L, single or combined, 6 hr, control 58.8
Experimental: On the following day after cell seeding, test substances were added and the cells were cultured for 6 hr before harvesting them. The amounts of relative phospho-4E-BP1 protein contained in the prepared whole cell lysates were measured and evaluated. Each group (N=3) was treated as follows: • (1) Control (vehicle control) group: 1% ethanol containing medium • (2) Metformin single-treated group: metformin 20 mmol/L • (3) dihydroquercetin single-treated group: dihydroquercetin 0.2 mmol/L • (4) combined-treated group: metformin 20 mmol/L+dihydroquercetin 0.2 mmol/L
The passage-cultured HuH-28 cells were dissociated with trypsin, and suspended in the medium. The cell density of the cell suspension was determined using a hematocytometer and adjusted to 2.5×10^5 cells/mL. The cells were seeded on 12-well multiwell culture plate at 1 mL per well, and cultured overnight under the conditions of 37° C., 5% CO2. […] Upon centrifugation, the supernatants were sampled, and the amounts of relative phospho-4E-BP1 (Thr37/Thr46) protein in the samples were quantified using ELISA kits in the same manner as in Example 1. The total protein concentrations in the whole cell lysates were measured using BCA protein assay, and the relative phospho-4E-BP1 protein amount of each well was normalized with the total protein amount. […]

[6] = system: phospho-4E-BP1 (Thr37/Thr46) protein; experiment: Relative phospho-4E-BP1 protein amount (ELISA) in human ovarian cancer cell line Caov-3 (Example 8); format: cell-based; conditions: metformin 20 mmol/L, dihydroquercetin 0.2 mmol/L, single or combined, 6 hr, control 21.6
Experimental: On the following day after cell seeding, test substances were added and the cells were cultured for 6 hr before harvesting them. The amounts of relative phospho-4E-BP1 protein contained in the prepared whole cell lysates were measured and evaluated. Each group (N=3) was treated as follows: • (1) Control (vehicle control) group: 1% ethanol containing medium • (2) Metformin single-treated group: metformin 20 mmol/L • (3) Dihydroquercetin single-treated group: dihydroquercetin 0.2 mmol/L • (4) Combined-treated group: metformin 20 mmol/L+dihydroquercetin 0.2 mmol/L
The passage-cultured Caov-3 cells were dissociated with trypsin, and suspended in fresh medium. The cell density of the cell suspension was determined using a hematocytometer and adjusted to 2.5×10^5 cells/mL. The cells were seeded on 12-well multiwell culture plate at 1 mL per well, and cultured overnight under the conditions of 37° C., 5% CO2. […] Upon centrifugation, the supernatants were sampled, and the amounts of relative phospho-4E-BP1 (Thr37/Thr46) protein in the samples were quantified using ELISA kits in the same manner as in Example 1. The total protein concentrations in the whole cell lysates were measured using BCA protein assay, and the relative phospho-4E-BP1 protein amount of each well was normalized with the total protein amount. […]

[7] = system: phospho-4E-BP1 (Thr37/Thr46) protein; experiment: Relative phospho-4E-BP1 protein amount (ELISA) in human pancreatic cancer cell line AsPC-1, 24 hr (Example 9); format: cell-based; conditions: single or combined
Experimental: Each group (N=3) was treated as follows. • (1) Control (vehicle control) group: 1% ethanol containing medium • (2) Metformin single-treated group: metformin 1.5, 3 and 6 mmol/L • (3) Dihydroquercetin-single treated group: dihydroquercetin 0.3 mmol/L • (4) Combined-treated group: metformin 1.5, 3 and 6 mmol/L+dihydroquercetin 0.3 mmol/L
The passage-cultured AsPC-1 cells were dissociated with trypsin, and suspended in fresh medium. The cell density of the cell suspension was determined using a hematocytometer and adjusted to 2.5×10^5 cells/mL. The cells were seeded on 12-well multiwell culture plate at 1 mL per well, and cultured overnight under the conditions of 37° C., 5% CO2. On the following day, medium containing metformin or dihydroquercetin or both metformin and dihydroquercetin, at the given concentration, was added into each well. After incubation under the conditions of 37° C., 5% CO2 for 24 hr, the cells in each well were washed twice with D-PBS, and whole cell lysates were prepared using cell lysis buffer. Upon centrifugation, the supernatants were sampled, and the amounts of relative phospho-4E-BP1 (Thr37/Thr46) protein in the samples were quantified using ELISA kits in the same manner as in Example 1. The concentrations of total protein in the whole cell lysates were measured using BCA protein assay, and the relative phospho-4E-BP1 protein amount of each well was normalized with the total protein amount.
To evaluate the influence of the combined use on relative phospho-4E-BP1 protein amount, Dunnett test was performed to compare the combined-treated group with each single agent-treated group. […] The differences were considered statistically significant when the p value was less than 0.05.

[8] = system: WI-38 cells; experiment: Lactate production in human lung fibroblast cell line WI-38, racemate and optically-active dihydroquercetin (Example 10); conditions: for Metformin-induced lactate production: dihydroquercetin 1 mmol/L added 1 hr before metformin 20 mmol/L, 6 hr (FIG. 4, FIG. 5); for Lactate production: dihydroquercetin 1 mmol/L single, compared with the control group (FIG. 4, FIG. 5)
Experimental: On the following day after cell seeding, dihydroquercetin was added and the cells were cultured for 1 hr. Then, metformin was added and the cells were cultured for 6 hr. The conditioned medium was sampled, and the concentration of the lactate contained in the medium was measured and evaluated. Each group (N=3) was treated as follows: • (1) Control (vehicle control) group: 1% ethanol containing medium • (2) Dihydroquercetin single-treated group: dihydroquercetin 1 mmol/L • (3) Metformin single-treated group: metformin 20 mmol/L • (4) Combined-treated group: metformin 20 mmol/L+dihydroquercetin 1 mmol/L
The passage-cultured WI-38 cells were dissociated with trypsin, and suspended in fresh medium. The cell density of the cell suspension was determined using a hematocytometer and adjusted to 2.5×10^5 cells/mL. The cells were seeded on 24-well multiwell culture plate (IWAKI) at 0.5 mL per well, and cultured overnight under the conditions of 37° C., 5% CO2. Thereto was added a medium containing a given concentration of dihydroquercetin and the cells were cultured for 1 hr, a medium containing a given concentration of metformin was added and the cells were further cultured for 6 hr. After culture, the culture supernatant from each well was sampled and passed through a filter for molecular weight cut-off 10 kDa to obtain the filtrate. Using the Lactate Assay Kit II (BioVision) catalog no. K627-100, lactate concentration was measured. The cells after sampling of the culture supernatant were washed twice with D-PBS, and cell lysis buffer was added to prepare whole cell lysates. The concentrations of the protein in the whole cell lysates were measured using BCA protein assay, and the lactate concentration of each well was normalized with the protein concentration.
To evaluate the influence of dihydroquercetin on the metformin-induced produced lactate content, the Student's t-test was performed for the concentration of lactate in the medium between the control group and the dihydroquercetin single agent treated group, and between the control group and the metformin single agent treated group. In addition, to evaluate an influence of the combination of dihydroquercetin and metformin for normalized produced lactate content, a two-way ANOVA (two-tailed) (factors: group and concentration) was performed between the dihydroquercetin single agent treated group (groups 1 and 2) and the metformin treated group (groups 3 and 4). […] The analysis was performed using SAS software Release 9.3 (SAS Institute Japan). The differences were considered statistically significant when the p value was less than 0.05.

[9] = system: phospho-4E-BP1 (Thr37/Thr46) protein; experiment: Relative phospho-4E-BP1 protein amount (ELISA) in AsPC-1, dihydroquercetin single agent (Example 11); format: cell-based, human
Experimental: To evaluate the dose dependency of dihydroquercetin on the relative phospho-4E-BP1 protein amount, the linear regression analysis was performed. As a result, dose dependency was observed. Then, the Williams' test (one-tailed) was performed between the control group and the single agent treated group. As a result, a significant suppressive action of dihydroquercetin at not less than 0.5 mmol/L on relative phospho-4E-BP1 protein amount was observed.

[10] = system: AsPC-1 cells; experiment: Proportion of CD44 and CD24 double positive cells (cancer stem cell surface markers) in AsPC-1 by flow cytometry (Example 12); format: cell-based, human; conditions: 72 hr, dihydroquercetin 0.3 mmol/L, metformin 15 mmol/L + dihydroquercetin 0.3 mmol/L, or gemcitabine 100 nmol/L, compared with the control group (FIG. 7)
Experimental: Each group (N=10) was treated as follows: • (1) Control (vehicle control) group: 1.5% distilled water, 0.3% ethanol and 0.1% DMSO containing medium • (2) Metformin single-treated group: metformin 15 mmol/L • (3) Dihydroquercetin single-treated group: dihydroquercetin 0.3 mmol/L • (4) Metformin-dihydroquercetin combined-treated group: metformin 15 mmol/L+dihydroquercetin 0.3 mmol/L • (5) Gemcitabine single-treated group: gemcitabine 100 nmol/L • (6) Metformin.dihydroquercetin.gemcitabine combined-treated group: metformin 15 mmol/L+dihydroquercetin 0.3 mmol/L+gemcitabine 100 nmol/L
The passage-cultured AsPC-1 cells were dissociated with trypsin, and suspended in fresh medium. The cell density of the cell suspension was determined using a hematocytometer and adjusted to 2×10^4 cells/mL. The cells were seeded on 6-well multiwell culture plate (IWAKI) at 3 mL per well, and cultured overnight under the conditions of 37° C., 5% CO2. […] After washing with FACS (fluorescence activated cell sorting) buffer, the cells were stained with FITC-labeled anti-human CD44 antibody and APC-labeled anti-human CD24 antibody, and treated at 4° C. for 30 min. Thereafter, the cells were washed with the FACS buffer, passed through a 40 micron mesh filter, and the proportion of CD44 and CD24 double positive cells was determined using the flow cytometer (Nippon Becton Dickinson and Company, Ltd.). […]

[11] = metformin:dihydroquercetin = 1.5 mmol/L:0.3 mmol/L, control 107.3
[12] = metformin:dihydroquercetin = 3 mmol/L:0.3 mmol/L, control 33.5
[13] = metformin:dihydroquercetin = 6 mmol/L:0.3 mmol/L, control 107.3

SMILES	Lactate production induced by metformin [1]	Relative phospho-4E-BP1 protein amount MEAN [2]	Relative phospho-4E-BP1 protein amount MEAN [3]	Relative phospho-4E-BP1 protein amount MEAN [4]	Relative phospho-4E-BP1 protein amount MEAN [5]	Relative phospho-4E-BP1 protein amount MEAN [6]	Relative phospho-4E-BP1 protein amount MEAN [7, 11]	Relative phospho-4E-BP1 protein amount MEAN [7, 12]	Relative phospho-4E-BP1 protein amount MEAN [7, 13]	Metformin-induced lactate production [8]	Lactate production [8]	Concentration of dihydroquercetin with significant suppressive action on relative phospho-4E-BP1 protein amount ([9]; 6 hr, Williams' test vs control group)	Relative phospho-4E-BP1 protein amount ([9]; dihydroquercetin 0.5 and 1 mmol/L single agent, 6 hr (FIG. 6))	Proportion of CD44 and CD24 double positive cells [10]
O=C1c2c(O)cc(O)cc2OC(c2ccc(O)c(O)c2)C1O (racemic) [Dihydroquercetin, dihydroquercetin]	significantly suppressed the lactate production induced by metformin	59.7	25.9	53.1	54.2	21.0	97.4	37.2	89.7	significantly suppressed	suppressed lactate production	not less than 0.5 mmol/L	dose-dependent suppressive effect	significantly decreased
Nc1ccn([C@@H]2O[C@H](CO)[C@@H](O)C2(F)F)c(=O)n1 [Gemcitabine, gemcitabine, reference compound]	–	–	–	–	–	–	–	–	–	–	–	–	–	significantly increased
CN(C)C(=N)N=C(N)N [Metformin, metformin]	–	61.7	37.1	57.3	55.2	22.0	83.1	36.9	83.1	–	–	–	–	–
O=C1c2c(O)cc(O)cc2O[C@H](c2ccc(O)c(O)c2)[C@H]1O [optically-active dihydroquercetin, (2R,3R)-dihydroquercetin]	–	–	–	–	–	–	–	–	–	significantly suppressed	suppressed lactate production	–	–	–
